Publication PMC5656322, “BAK1 is involved in AtRALF1-induced inhibition of root cell expansion” (PLoS Genetics, 2017)
Where no end group is shown, it is not given here.

What was measured:
[1] = test system: AtPRP3, AtHRGP2, CPD and DWF4 genes; test: Expression of hormone-responsive genes (RT-PCR, qRT-PCR); assay type: in vivo, Arabidopsis thaliana; conditions: bak1-1, bak1-3, bak1-4 mutants, 1 μM, 1 h
Method: Arabidopsis plants were grown for 10 days in vertical plates and then treated in liquid medium containing 1 μM AtRALF1 for 1 h at room temperature. Control plants were incubated under identical conditions in a peptide-free medium. The total RNA was isolated from the roots of Arabidopsis plants using TRIzol reagent according to the manufacturer’s instructions (Life Technologies). The cDNA was synthesized using the ImProm-II Reverse Transcription System (Promega) and 1 μg of RNA. An aliquot of cDNA (1.5 μl) was used as the template in the PCR reaction, which was performed for 29 cycles, unless indicated otherwise, using gene-specific primers (S1 Table). The glyceraldehyde 3-phosphate dehydrogenase (GAPDH) gene was used as an internal control. All experiments were repeated at least three times with independent biological replicates. The data shown are from one representative experiment.
The qRT-PCR analysis was performed using 10-fold-diluted cDNA, Maxima SYBR Green Rox/qPCR Master Mix (Thermo Scientific) and a StepOne Real-Time PCR System (Applied Biosystems). The glyceraldehyde 3-phosphate dehydrogenase (GAPDH) gene was used as an internal control. […] The threshold cycle (CT) was determined by the instrument, and the ΔΔCT method was used to calculate the fold change in each gene. […] Three replicates were analyzed for each biological sample, and two biological samples were analyzed. […]

[2] = test system: BRI1 (BRI1-ECD); test: Yeast two-hybrid with BRI1-ECD; assay type: binding, Arabidopsis thaliana; conditions: yeast AH109, medium lacking Leu, Trp, His
Description: Fig 6 AtRALF1 interacts physically with BAK1 protein. (A) The active AtRALF1 peptide interacts with the extracellular domain (ECD) of BAK1 (BAK1-ECD) in yeast. The AtRALF1 protein fused to the GAL4 DNA-binding domain (AtRALF1-pGBKT7) was used as bait to test its interaction with the extracellular domain of the proteins fused to the GAL4 activation domain (pGADT7): BAK1 (BAK1-ECD), BAK7 (BAK7-ECD), BRI1 (BRI1-ECD) and FLS2 (FLS2-ECD). (B) Blueprint showing the truncated proteins from the extracellular domain of BAK1 tested in the two-hybrid assay. The extracellular domain of BAK1 comprises leucine zippers (LZ), 5 leucine rich-regions (LRRs) and a proline-rich region (pro-rich). (C) AtRALF1-pGBKT7 was used as bait to test its interaction with truncated proteins fused to the GAL4 activation domain (pGADT7). […] HA-BAK1-ECD was detected with an anti-HA antibody. AtRALF1 was detected with an anti-RALF antibody. […] BAK1-GFP was detected with an anti-GFP antibody. […]
The coding regions of the mature peptides AtRALF1 and AtRALF34 were amplified from Arabidopsis genomic DNA and fused to the GAL4 DNA-binding domain and the MYC epitope tag using the NdeI/BamHI sites in the pGBKT7 (Clontech) vector. […] The proteins fused to the HA and MYC epitope tags were detected by protein blotting. […]

[3] = test system: BAK1; test: BAK1 phosphorylation assay, anti-phosphothreonine; assay type: in vivo, Arabidopsis thaliana; conditions: 20 min
Method: Transgenic plants pBAK1:BAK1-6xHA were grown in vertical plates for 10–15 days. The plants were treated with 0.1 μM BL, 2 μM RALF1(9–49), 1 μM, 2 μM or 10 μM AtRALF1 for 20 min. The roots were isolated, and the microsomal fractions were obtained as described above. The microsomal fractions were incubated with anti-HA beads (EZview Red Anti-HA Affinity Gel, Sigma) for 2 h at 4 °C to immunoprecipitate the BAK1 protein. The unbound materials were removed by washing 3 times. Proteins were separated by SDS/PAGE and further analyzed by protein blotting using anti-HA (Thermo Scientific), or anti-phosphothreonine (Novus Biologicals), or anti-phosphoserine (Novus Biologicals) antibodies.

AtRALF1: root-specific RALF isoform in Arabidopsis; recombinant peptide hormone produced in E. coli (ATTKYISYQSLKRNSVPCSRRGASYYNCQNGAQANPYSRGCSKIARCRS; ends and bridges not checked; cysteine pairing not given here)
up-regulation of AtRALF1-inducible genes [1]: None of the AtRALF1-inducible genes were up-regulated | interaction with BRI1-ECD (Y2H complementation) [2]: able to complement only the BAK1-ECD construct | further increase of BAK1 Thr phosphorylation ([3]; 10 μM): did not result in further increases in phosphorylation | upper concentration of dose-dependent BAK1 Thr phosphorylation ([3]; pBAK1:BAK1-HA roots): up to 2 μM | BAK1 phosphorylation in threonine residues ([3]; pBAK1:BAK1-HA roots, AtRALF1 1, 2, 10 μM, BL 0.1 μM): increase in BAK1 phosphorylation in the threonine residues similar to the increase resulting from the treatment of the seedlings with BL
